According to patent US12692274B2, “Tetrahydroisoquinoline derivatives for the treatment of red blood disorders and inflammatory diseases” (Sanofi, priority 2020, dated 2026):
Where “and” joins values, the source holds several entries; their conditions need not be identical. Equal values may be shown once.

How the values were obtained:
[1] = tested on: NQO1 activation in BEAS-2B cells; assay: BEAS-2B cellular MTT assay of NQO1 activation, 0% HSA; type: cell-based
Outline: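 For the 0% HSA condition, cells were seeded into collagen plates in HSA-free medium. Culture was BEAS-2B in BEBM plus BEGM SingleQuots lacking GA-1000, held under 70% confluence, at a seeding density reaching 95-100% confluence by 48 h.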

[2] = tested on: NQO1 activation in BEAS-2B cells; assay: BEAS-2B cellular MTT assay of NQO1 activation, 0.3% HSA; type: cell-based
Outline: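 MTT read-out in BEAS-2B cells grown in BEBM with SingleQuots, no GA-1000, kept below 70% confluence; plates coated with collagen, with 0.3% or 0% HSA medium, seeded to 95-100% confluency at 48 h, 37 °C, 5% CO2.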

[3] = molecular target: HIS-Keap1 full length / Biotin-Nrf2 (16-mer) (Homo sapiens, UniProt Q14145); assay: biochemical
[4] = Homo sapiens, serum free, read-out: BEAS EC50 (nM) serum free
[5] = serum free, read-out: BEAS EC50 (nM) serum free
[6] = Homo sapiens, BEAS+, read-out: BEAS+ EC50
[7] = Homo sapiens, Serum Free W, read-out: BEAS EC50 (nM) Serum Free W
[8] = Serum Free W, read-out: BEAS EC50 (nM) Serum Free W
[9] = BEAS+ W, read-out: BEAS+ W EC50
[10] = Homo sapiens, BEAS+ W, read-out: BEAS+ W EC50

Sequence of HIS-Keap1 full length / Biotin-Nrf2 (16-mer) (Q14145 whole entry): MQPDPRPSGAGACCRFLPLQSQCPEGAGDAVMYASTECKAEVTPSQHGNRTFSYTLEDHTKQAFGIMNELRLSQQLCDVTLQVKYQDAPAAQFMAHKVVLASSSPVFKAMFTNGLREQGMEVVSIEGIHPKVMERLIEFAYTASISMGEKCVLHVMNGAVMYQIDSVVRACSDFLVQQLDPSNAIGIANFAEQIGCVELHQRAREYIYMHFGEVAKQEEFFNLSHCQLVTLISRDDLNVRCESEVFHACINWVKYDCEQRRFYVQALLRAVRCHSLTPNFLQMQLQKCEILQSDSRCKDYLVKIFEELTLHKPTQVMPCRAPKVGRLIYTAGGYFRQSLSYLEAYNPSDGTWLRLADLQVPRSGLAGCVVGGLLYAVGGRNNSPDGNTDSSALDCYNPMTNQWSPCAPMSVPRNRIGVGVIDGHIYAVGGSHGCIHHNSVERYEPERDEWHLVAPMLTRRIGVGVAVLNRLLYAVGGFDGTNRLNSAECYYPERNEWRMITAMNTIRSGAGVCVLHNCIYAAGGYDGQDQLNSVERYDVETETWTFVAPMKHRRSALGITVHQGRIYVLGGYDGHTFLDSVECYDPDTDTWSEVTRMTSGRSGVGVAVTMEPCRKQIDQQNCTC

SMILES	EC50 [1, 4]	EC50 [1, 5]	EC50 ([2]; BEAS+, read-out: BEAS+ EC50)	EC50 [2, 6]	IC50 [3]	EC50 [1, 7]	EC50 [1, 8]	EC50 [2, 9]	EC50 [2, 10]
Cc1cc2ccc1C(=O)N1CCc3ccc(cc3C1)C(CC(=O)O)c1ccc(nc1)OCCCCCCO2 (stereo not drawn) [Compound 301]	80.6 nM	144 nM	214 nM	317 nM	6.8 nM and 6 nM	–	–	–	–
O=C(O)CC1c2ccc3c(c2)CN(CC3)C(=O)c2ncc(cc2F)OCCCCCCn2nnc3c(Cl)c1ccc32 (stereo not drawn) [Compound 213]	118 nM	98.4 nM	126 nM	147 nM	1.5 nM and 1.6 nM	–	–	–	–
Cc1c2ccc3c1nnn3CCCCCCc1ccc(c3cccnc13)C(=O)N1CCc3ccc(cc3C1)[C@@H]2CC(=O)O [Compound 48]	–	–	–	–	0.1 nM and 0.2 nM	12 nM	9.1 nM	23.9 nM	26.1 nM
Cc1c2cnc3c1nnn3CCCCCc1cccc(c1)C(=O)N1CCc3ccc(cc3C1)C2CC(=O)O (stereo not drawn) [Compound 354]	–	–	–	–	20.1 nM and 13.8 nM	> 1000 nM	–	2130 nM	2700 nM
Cc1c2ccc3c1nnn3CCCCCOc1ccc(c(F)c1F)C(=O)N1CCc3ccc(cc3C1)C2CC(=O)O (stereo not drawn) [Compound 306]	68.1 nM	–	90.1 nM	134 nM	0.1 nM and < 0.1 nM	–	–	–	–
Cc1c2ccc3c1nnn3CCCCCCc1ccc(cc1)C(=O)N1CCc3ccc(cc3C1)C2CC(=O)O (stereo not drawn) [Compound 307]	0.4 nM	–	5.2 nM	3.7 nM	0.2 nM	–	–	–	–
Cc1cc2ccc1C(=O)N1CCc3ccc(cc3C1)[C@H]([C@@H](C)C(=O)O)c1ccc3c(nnn3CCCOCCO2)c1C [Compound 371]	21.3 nM	22.1 nM	28.8 nM	23.6 nM	1.6 nM and 1.7 nM	–	–	–	–
O=C(O)CC1c2ccc3c(c2)CN(CC3)C(=O)c2ccc3c(ccn3CCCCCCn3nnc4cc1ccc43)c2 (stereo not drawn) [Compound 397]	597 nM	659 nM	2150 nM	1520 nM	13.9 nM and 14.8 nM	–	–	–	–
O=C(O)CC1c2ccc3c(c2)CN(CC3)C(=O)c2ncc(cc2F)CCCCCCn2nnc3c(Cl)c1ccc32 (stereo not drawn) [Compound 224]	400 nM	296 nM	314 nM	320 nM	2.1 nM and 2 nM	–	–	–	–
Cc1c2ccc3c1nnn3CCCCCCOc1ccc(c(F)c1F)C(=O)N1CCc3ccc(cc3C1)C2CC(=O)O (stereo not drawn) [Compound 318]	20.4 nM	–	–	59.2 nM	0.8 nM	–	–	–	–
O=C(O)CC1c2ccc3c(c2)CN(CC3)C(=O)c2ccc(cn2)CCCCCn2nnc3c(Cl)c1ccc32 (stereo not drawn) [Compound 220]	178 nM	182 nM	346 nM	314 nM	1.4 nM and 1.2 nM	–	–	–	–
C[C@@H](C(=O)O)[C@@H]1c2ccc(nc2)OCC/C=C/Cc2ccc(cc2)C(=O)N2CCc3ccc1cc3C2 [Compound 46]	–	–	–	–	0.4 nM and 0.3 nM	0.7 nM	0.5 nM	2 nM	3.3 nM
O=C(O)CC1c2ccc3c(c2)CN(CC3)C(=O)c2ccc(cc2)CCCCCn2nnc3cc1ccc32 (stereo not drawn) [Compound 276]	88.5 nM	–	–	49.3 nM	2.2 nM and 2 nM and 2.1 nM	–	–	–	–
Cc1cc2cc3c1CCN(C3)C(=O)c1ccc(cc1)CCCCCCn1nnc3c(C)c(cnc31)C2CC(=O)O (stereo not drawn) [Compound 106]	–	–	–	–	0.9 nM and 0.7 nM	4.5 nM	5.6 nM	44.8 nM	35.5 nM
Cc1c2ccc3c1nnn3CCCCCOc1cc(F)c(c(F)c1)C(=O)N1CCc3ccc(cc3C1)C2CC(=O)O (stereo not drawn) [Compound 314]	2.6 nM	–	–	109 nM	4.4 nM and 1.8 nM	–	–	–	–
Cc1cc2ccc1C(=O)N1CCc3ccc(cc3C1)C(CC(=O)O)c1ccc(nc1C)OCCCCO2 (stereo not drawn) [Compound 178]	1160 nM	1140 nM	933 nM	1410 nM	113 nM and 105 nM	–	–	–	–
Cc1c2ccc3c1nnn3CCCCCOc1ccc(c(F)c1)C(=O)N1CCc3ccc(cc3C1)[C@@H]2CC(=O)O [Compound 254]	16 nM	17.2 nM	22.6 nM	16.4 nM	1.8 nM	–	–	–	–
Cc1cc2ccc1C(=O)N1CCc3ccc(cc3C1)C(CC(=O)O)c1ccc3c(c1)nnn3CCCCCCO2 (stereo not drawn) [Compound 332]	27.4 nM	–	–	62.7 nM	< 0.1 nM	–	–	–	–
Cc1cc2ccc1C(=O)N1CCc3ccc(cc3C1)[C@H]([C@H](C)C(=O)O)c1ccc3c(nnn3CCCOCCO2)c1C [Compound 370]	1480 nM	1350 nM	1710 nM	1640 nM	4.3 nM and 4.2 nM	–	–	–	–
Cc1c2ccc3c1nnn3CCCCCCc1ccc(c(F)c1)C(=O)N1CCc3ccc(cc3C1)C2CC(=O)O (stereo not drawn) [Compound 272]	2.5 nM	–	–	3.3 nM	1.1 nM and 1.3 nM	–	–	–	–
